Measured values published in BindingDB's records for PubMed 9618428 (Glaxo Wellcome Research and Development, 1998).
Values joined by “and” are separate entries in the source; they are usually repeats but may differ in a detail not shown here. Equal entries are not always repeated.

What was measured:
[1] = target: Melatonin receptor type 1A (Sus scrofa, UniProt O02781)
[2] = target: Melatonin receptor type 1A (Homo sapiens, UniProt P48039)
[3] = target: T1, Melatonin receptor type 1B (Homo sapiens, UniProt P49286)
T1 sequence (P49286 whole entry): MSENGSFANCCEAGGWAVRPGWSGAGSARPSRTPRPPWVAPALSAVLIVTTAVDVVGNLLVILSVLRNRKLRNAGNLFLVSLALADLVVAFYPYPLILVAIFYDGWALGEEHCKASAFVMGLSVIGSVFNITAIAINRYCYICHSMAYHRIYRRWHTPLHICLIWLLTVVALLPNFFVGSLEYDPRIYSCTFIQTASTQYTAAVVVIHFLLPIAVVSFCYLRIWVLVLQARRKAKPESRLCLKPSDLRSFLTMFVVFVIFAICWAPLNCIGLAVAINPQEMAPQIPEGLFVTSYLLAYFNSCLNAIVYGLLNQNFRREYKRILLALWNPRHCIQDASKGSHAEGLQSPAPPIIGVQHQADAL

Chain of Melatonin receptor type 1A (Homo sapiens, UniProt P48039) (P48039 whole entry): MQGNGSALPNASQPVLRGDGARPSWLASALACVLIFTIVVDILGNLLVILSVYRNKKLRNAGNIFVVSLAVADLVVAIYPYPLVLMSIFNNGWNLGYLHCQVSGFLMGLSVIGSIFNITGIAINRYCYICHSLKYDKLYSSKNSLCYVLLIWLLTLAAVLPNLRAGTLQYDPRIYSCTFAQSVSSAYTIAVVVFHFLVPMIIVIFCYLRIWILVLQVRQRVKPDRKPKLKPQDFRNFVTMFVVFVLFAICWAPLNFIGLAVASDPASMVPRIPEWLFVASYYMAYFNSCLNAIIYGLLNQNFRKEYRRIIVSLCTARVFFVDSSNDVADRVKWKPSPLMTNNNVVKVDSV
Chain of Melatonin receptor type 1A (Sus scrofa, UniProt O02781) (O02781 whole entry): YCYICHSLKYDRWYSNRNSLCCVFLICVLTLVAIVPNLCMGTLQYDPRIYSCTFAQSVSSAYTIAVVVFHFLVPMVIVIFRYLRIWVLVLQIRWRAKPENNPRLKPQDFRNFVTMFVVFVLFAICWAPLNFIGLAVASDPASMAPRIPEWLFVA

| Ki [1] | Ki [2] [nM] | Ki [3] | Structure (SMILES) |
| --- | --- | --- | --- |
| 0.03 nM and 0.04 nM | – | – | COc1ccc2[nH]c(I)c(CCNC(C)=O)c2c1 |
| 0.46 nM and 0.74 nM | – | – | COc1cc2c(CCNC(C)=O)c[nH]c2cc1Cl |
| 0.25 nM and 0.24 nM | – | – | COc1ccc2[nH]cc(CCNC(C)=O)c2c1 |
| 933 nM and 676 nM | – | – | CC(=O)NCCc1c(Cc2ccccc2)[nH]c2ccccc12 [CAS_117946-91-5] |
| 398 nM and 347 nM | 79.4 | 302 nM and 148 nM | CC(=O)NCCc1c[nH]c2ccc(O)cc12 [N-Acetyltryptamine,5-Hydroxy] |
| 0.61 nM and 0.33 nM | 0.14 | 0.16 nM | CC(=O)NCCN1CCc2ccc3c(c21)CCO3 [NSC_5311134] |
| 10.2 nM and 25.1 nM | 0.54 | 2.23 nM and 1.69 nM | COc1cc2c(CCNC(C)=O)c[nH]c2cc1O [melatonin, 6-Hydroxy] |
